# Source: patent US11078202B2, “β-lactamase inhibitor and use thereof” (priority 2018, dated 2021)
# Structures can show the parent of a compound that is named as a salt.
# Columns and labels:
# Format in all cases: cell-based
# [1] = system: Acinetobacter baumannii XNWB 0007; assay: MIC assay of test compounds combined with ceftazidime (8 μg/mL); details: ceftazidime 8 μg/mL fixed
# In short: (§1)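 We recorded each combination MIC according to CLSI after culturing plates at 35±2 °C for 16-20 h. The inoculum consisted of colonies suspended in 0.9% NaCl (OD600 0.1-0.15) and diluted 300-fold with 1.1×CAMHB, mixed with compound dilutions and the partner β-lactam.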
# [2] = system: Klebsiella pneumoniae XNWB 0001; assay: as above; details: ceftazidime 8 μg/mL fixed
# In short: as §1
# [3] = system: Klebsiella pneumoniae XNWB 0002; assay: as above; details: ceftazidime 8 μg/mL fixed
# In short: as §1
# [4] = system: Klebsiella pneumoniae XNWB 0003; assay: as above; details: ceftazidime 8 μg/mL fixed
# In short: as §1
# [5] = system: Klebsiella pneumoniae XNWB 0004; assay: as above; details: ceftazidime 8 μg/mL fixed
# In short: as §1
# [6] = system: Klebsiella pneumoniae XNWB 0005; assay: as above; details: ceftazidime 8 μg/mL fixed
# In short: as §1
# [7] = system: Klebsiella pneumoniae XNWB 0006; assay: as above; details: ceftazidime 8 μg/mL fixed
# In short: as §1
# [8] = system: Pseudomonas aeruginosa XNWB 0008; assay: as above; details: ceftazidime 8 μg/mL fixed
# In short: as §1
# [9] = system: Acinetobacter baumannii XNWB 0007; assay: MIC assay of test compounds combined with imipenem (4 μg/mL); details: imipenem 4 μg/mL fixed
# In short: as §1
# [10] = system: Klebsiella pneumoniae XNWB 0001; assay: as above; details: imipenem 4 μg/mL fixed
# In short: as §1
# [11] = system: Klebsiella pneumoniae XNWB 0002; assay: as above; details: imipenem 4 μg/mL fixed
# In short: as §1
# [12] = system: Klebsiella pneumoniae XNWB 0003; assay: as above; details: imipenem 4 μg/mL fixed
# In short: as §1
# [13] = system: Klebsiella pneumoniae XNWB 0004; assay: as above; details: imipenem 4 μg/mL fixed
# In short: as §1
# [14] = system: Klebsiella pneumoniae XNWB 0005; assay: as above; details: imipenem 4 μg/mL fixed
# In short: as §1
# [15] = system: Klebsiella pneumoniae XNWB 0006; assay: as above; details: imipenem 4 μg/mL fixed
# In short: as §1
# [16] = system: Pseudomonas aeruginosa XNWB 0008; assay: as above; details: imipenem 4 μg/mL fixed
# In short: as §1
Structure (SMILES),The minimum concentration of test compounds combined with ceftazidime (8 μg/mL) for bacteriostasis [1],The minimum concentration of test compounds combined with ceftazidime (8 μg/mL) for bacteriostasis [2],The minimum concentration of test compounds combined with ceftazidime (8 μg/mL) for bacteriostasis [3],The minimum concentration of test compounds combined with ceftazidime (8 μg/mL) for bacteriostasis [4],The minimum concentration of test compounds combined with ceftazidime (8 μg/mL) for bacteriostasis [5],The minimum concentration of test compounds combined with ceftazidime (8 μg/mL) for bacteriostasis [6],The minimum concentration of test compounds combined with ceftazidime (8 μg/mL) for bacteriostasis [7],The minimum concentration of test compounds combined with ceftazidime (8 μg/mL) for bacteriostasis [8],The minimum concentration of test compounds combined with imipenem (4 μg/mL) for bacteriostasis [9],The minimum concentration of test compounds combined with imipenem (4 μg/mL) for bacteriostasis [10],The minimum concentration of test compounds combined with imipenem (4 μg/mL) for bacteriostasis [11],The minimum concentration of test compounds combined with imipenem (4 μg/mL) for bacteriostasis [12],The minimum concentration of test compounds combined with imipenem (4 μg/mL) for bacteriostasis [13],The minimum concentration of test compounds combined with imipenem (4 μg/mL) for bacteriostasis [14],The minimum concentration of test compounds combined with imipenem (4 μg/mL) for bacteriostasis [15],The minimum concentration of test compounds combined with imipenem (4 μg/mL) for bacteriostasis [16]
"N[C@@H]1CCC(c2nnc([C@@H]3CC4(CC4)[C@@H]4CN3C(=O)N4OS(=O)(=O)O)o2)C1 (stereo in doubt) [Example 18, (1R,4S)-4-(5-((1R,3R)-3-aminocyclopentyl)-1,3,4-oxadiazol-2-yl)-6-oxo-5,7-diazaspiro [bicyclo[3.2.1]octane-2,1′-cyclopropan]-7-yl sulfate]",C (C: 16-128 μg/mL),A (A: <8 μg/mL),A (A: <8 μg/mL),A (A: <8 μg/mL),B (B: 8-16 μg/mL),A (A: <8 μg/mL),A (A: <8 μg/mL),B (B: 8-16 μg/mL),B (B: 8-16 μg/mL),A (A: <8 μg/mL),A (A: <8 μg/mL),A (A: <8 μg/mL),A (A: <8 μg/mL),A (A: <8 μg/mL),A (A: <8 μg/mL),A (A: <8 μg/mL)
"O=C1N2C[C@H](N1OS(=O)(=O)O)C1(CC1)C[C@H]2c1cc(C2CCCNC2)on1 (stereo partly drawn) [Example 44, (1R,4S)-6-oxo-4-(5-(piperidin-3-yl)isoxazol-3-yl)-5,7-diazaspiro[bicyclo[3.2.1]octane-2,1′-cyclopropan]-7-yl sulfate]",C (C: 16-128 μg/mL),A (A: <8 μg/mL),A (A: <8 μg/mL),A (A: <8 μg/mL),B (B: 8-16 μg/mL),A (A: <8 μg/mL),A (A: <8 μg/mL),B (B: 8-16 μg/mL),C (C: 16-128 μg/mL),A (A: <8 μg/mL),A (A: <8 μg/mL),A (A: <8 μg/mL),A (A: <8 μg/mL),A (A: <8 μg/mL),A (A: <8 μg/mL),A (A: <8 μg/mL)
"CNC1(Cc2nnc([C@@H]3CC4(CC4)[C@@H]4CN3C(=O)N4OS(=O)(=O)O)o2)CC1 [Example 22, (1R,4S)-4-(5-((1-(methylamino)cyclopropyl)methyl)-1,3,4-oxadiazol-2-yl)-6-oxo-5,7-diazaspiro[bicyclo[3.2.1]octane-2,1′-cyclopropan]-7-yl sulfate]",C (C: 16-128 μg/mL),B (B: 8-16 μg/mL),A (A: <8 μg/mL),B (B: 8-16 μg/mL),C (C: 16-128 μg/mL),B (B: 8-16 μg/mL),A (A: <8 μg/mL),C (C: 16-128 μg/mL),C (C: 16-128 μg/mL),A (A: <8 μg/mL),A (A: <8 μg/mL),A (A: <8 μg/mL),A (A: <8 μg/mL),A (A: <8 μg/mL),A (A: <8 μg/mL),C (C: 16-128 μg/mL)
"NC1(Cc2nnc([C@@H]3CC4(CC4)[C@@H]4CN3C(=O)N4OS(=O)(=O)O)o2)CC1 [Example 21, (1R,4S)-4-(5-((1-aminocyclopropyl)methyl)-1,3,4-oxadiazol-2-yl)-6-oxo-5,7-diazaspiro [bicyclo[3.2.1]octane-2,1′-cyclopropan]-7-yl sulfate]",C (C: 16-128 μg/mL),A (A: <8 μg/mL),A (A: <8 μg/mL),A (A: <8 μg/mL),B (B: 8-16 μg/mL),B (B: 8-16 μg/mL),A (A: <8 μg/mL),C (C: 16-128 μg/mL),C (C: 16-128 μg/mL),A (A: <8 μg/mL),A (A: <8 μg/mL),A (A: <8 μg/mL),A (A: <8 μg/mL),A (A: <8 μg/mL),A (A: <8 μg/mL),C (C: 16-128 μg/mL)
